Assay results: US20160122320A1, “USEFUL COMBINATIONS OF MONOBACTAM ANTIBIOTICS WITH BETA-LACTAMASE INHIBITORS” (Basilea Pharmaceutica AG, priority 2005, published 2016)

Columns and labels:
Test in all cases: MIC, NCCLS broth microdilution
Assay type in all cases: cell-based
[1] = tested on: Klebsiella pneumoniae CF104
[2] = tested on: Acinetobacter sp. J2; conditions: Acinetobacter baumannii J2
[3] = tested on: Pseudomonas aeruginosa MK1184
[4] = tested on: Acinetobacter baumannii J51
Summary of the method: (§1)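 Compounds were serially diluted per NCCLS M7-A5 (final DMSO no more than 1%) and incubated with bacteria overnight at 30° C. or 37° C. Visible growth was then judged by eye. For combinations, partner compounds sat in every well at a constant 4 μg/mL each.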

[5] = tested on: Pseudomonas aeruginosa 1973E
Summary of the method: as §1

[6] = tested on: Serratia marcescens S6
[7] = tested on: Stenotrophomonas malthophilia 1AC736; conditions: Stenotrophomonas maltophilia 1AC736
Procedure: (§2) Antimicrobial activity of the compounds and of their combinations was determined against a selection of organisms according to the standard procedures described by the National Committee for Clinical Laboratory Standards (National Committee for Clinical Laboratory. Standards (2000). Methods for Dilution Antimicrobial Susceptibility Tests for Bacteria That Grow Aerobically-Fifth Edition: Approved Standard M7-A5. NCCLS, Wayne, Pa., USA).
(§3) In all cases the final concentration of DMSO incubated with the bacteria is less than or equal to 1%. […] Plates were incubated overnight at an appropriate temperature (30° C. or 37° C.) and optical densities assessed by eye. The MIC value is defined as the lowest compound concentration completely inhibiting visible growth of the test organism. When combinations between compounds of formula I with compounds of formula II and are evaluated the compounds of formula I are tested in dilution series as described above while the compounds of formula II and III-XIII were present in all wells at a constant concentration of 4 μg/mL each.

[8] = tested on: Enterobacter cloacae P99
[9] = tested on: Enterobacter aerogenes Zayakosky; conditions: Enterobacter aerogenes Zayakosky 5
Procedure: as §2, §3

[10] = with clavulanate (clavulanic acid)

CC1(C)[C@H](NC(=O)/C(=N\OCc2cc(=O)c(O)cn2O)c2csc(N)n2)C(=O)N1OS(=O)(=O)O [Compound 26, (3S)-3-{(2Z)-2-(2-amino(1,3-thiazol-4-yl))-3-[(1,5-dihydroxy-4-oxo(2-hydropyridyl))methoxy]-3-azaprop-2-enoylamino}-4,4-dimethyl-2-oxoazetidinyl hydroxysulfonate]
0.125 µg/mL: MIC of antibiotic at fixed inhibitor concentration of 4 mg/L ([1]; with BRL427158) | MIC of antibiotic at fixed inhibitor concentration of 4 mg/L ([7]; with 501) | MIC of antibiotic at fixed inhibitor concentration of 4 mg/L ([7]; with BRL427158)
1 µg/mL: MIC of antibiotic at fixed inhibitor concentration of 4 mg/L ([1]; with 102 and sulbactam) | MIC of antibiotic at fixed inhibitor concentration of 4 mg/L ([1]; with 324 and sulbactam) | MIC of antibiotic at fixed inhibitor concentration of 4 mg/L ([1]; with 501) | MIC of antibiotic at fixed inhibitor concentration of 4 mg/L ([1]; with sulbactam) | MIC of antibiotic at fixed inhibitor concentration of 4 mg/L ([1]; with tazobactam) | MIC of antibiotic at fixed inhibitor concentration of 4 mg/L ([4]; with 501) | MIC of antibiotic at fixed inhibitor concentration of 4 mg/L ([4]; with clavulanic acid) | MIC of antibiotic at fixed inhibitor concentration of 4 mg/L ([8]; with 102 only) | MIC of antibiotic at fixed inhibitor concentration of 4 mg/L ([8]; with 324 and clavulanate)
<0.06 µg/mL: MIC of antibiotic ([6]; antibiotic alone, no inhibitor) | MIC of antibiotic at fixed inhibitor concentration of 4 mg/L ([6]; with 102 and sulbactam) | MIC of antibiotic at fixed inhibitor concentration of 4 mg/L ([6]; with 324 and clavulanate) | MIC of antibiotic at fixed inhibitor concentration of 4 mg/L ([6]; with 324 and sulbactam) | MIC of antibiotic ([7]; antibiotic alone, no inhibitor)
2 µg/mL: MIC of antibiotic at fixed inhibitor concentration of 4 mg/L ([2]; with 102 and sulbactam) | MIC of antibiotic at fixed inhibitor concentration of 4 mg/L ([2]; with 324 and sulbactam) | MIC of antibiotic at fixed inhibitor concentration of 4 mg/L ([2]; with sulbactam) | MIC of antibiotic ([3]; antibiotic alone, no inhibitor) | MIC of antibiotic at fixed inhibitor concentration of 4 mg/L ([3]; with 102 and clavulanate) | MIC of antibiotic at fixed inhibitor concentration of 4 mg/L ([3]; with 102 and sulbactam) | MIC of antibiotic at fixed inhibitor concentration of 4 mg/L ([3]; with 102 only) | MIC of antibiotic at fixed inhibitor concentration of 4 mg/L ([3]; with 324 and clavulanate) | MIC of antibiotic at fixed inhibitor concentration of 4 mg/L ([3]; with 324 and sulbactam) | MIC of antibiotic at fixed inhibitor concentration of 4 mg/L ([3]; with 501) | MIC of antibiotic at fixed inhibitor concentration of 4 mg/L ([3]; with BRL427158) | MIC of antibiotic at fixed inhibitor concentration of 4 mg/L ([4]; with 102 only) | MIC of antibiotic at fixed inhibitor concentration of 4 mg/L ([4]; with 324 and clavulanate) | MIC of antibiotic at fixed inhibitor concentration of 4 mg/L ([4]; with 324 only) | MIC of antibiotic at fixed inhibitor concentration of 4 mg/L ([4]; with sulbactam) | MIC of antibiotic at fixed inhibitor concentration of 4 mg/L ([5]; with 102 and clavulanate) | MIC of antibiotic at fixed inhibitor concentration of 4 mg/L ([5]; with 102 only) | MIC of antibiotic at fixed inhibitor concentration of 4 mg/L ([5]; with 324 and clavulanate) | MIC of antibiotic at fixed inhibitor concentration of 4 mg/L ([5]; with 324 and sulbactam) | MIC of antibiotic at fixed inhibitor concentration of 4 mg/L ([5]; with 501) | MIC of antibiotic at fixed inhibitor concentration of 4 mg/L ([5]; with BRL427158) | MIC of antibiotic at fixed inhibitor concentration of 4 mg/L [5, 10] | MIC of antibiotic at fixed inhibitor concentration of 4 mg/L ([5]; with sulbactam) | MIC of antibiotic at fixed inhibitor concentration of 4 mg/L ([5]; with tazobactam) | MIC of antibiotic at fixed inhibitor concentration of 4 mg/L ([8]; with 102 and clavulanate) | MIC of antibiotic at fixed inhibitor concentration of 4 mg/L ([8]; with 102 and sulbactam) | MIC of antibiotic at fixed inhibitor concentration of 4 mg/L ([8]; with 324 and sulbactam) | MIC of antibiotic at fixed inhibitor concentration of 4 mg/L ([8]; with 324 only) | MIC of antibiotic at fixed inhibitor concentration of 4 mg/L ([8]; with 501) | MIC of antibiotic at fixed inhibitor concentration of 4 mg/L ([8]; with BRL427158)
32 µg/mL: MIC of antibiotic ([1]; antibiotic alone, no inhibitor) | MIC of antibiotic at fixed inhibitor concentration of 4 mg/L ([4]; with BRL427158)
16 µg/mL: MIC of antibiotic at fixed inhibitor concentration of 4 mg/L ([1]; with 102 only) | MIC of antibiotic at fixed inhibitor concentration of 4 mg/L ([1]; with 324 only) | MIC of antibiotic ([5]; antibiotic alone, no inhibitor) | MIC of antibiotic ([8]; antibiotic alone, no inhibitor) | MIC of antibiotic at fixed inhibitor concentration of 4 mg/L ([8]; with tazobactam) | MIC of antibiotic ([9]; antibiotic alone, no inhibitor) | MIC of antibiotic at fixed inhibitor concentration of 4 mg/L ([9]; with 501) | MIC of antibiotic at fixed inhibitor concentration of 4 mg/L ([9]; with sulbactam) | MIC of antibiotic at fixed inhibitor concentration of 4 mg/L ([9]; with tazobactam)
8 µg/mL: MIC of antibiotic at fixed inhibitor concentration of 4 mg/L [8, 10] | MIC of antibiotic at fixed inhibitor concentration of 4 mg/L ([8]; with sulbactam) | MIC of antibiotic at fixed inhibitor concentration of 4 mg/L ([9]; with 102 only) | MIC of antibiotic at fixed inhibitor concentration of 4 mg/L ([9]; with clavulanic acid)
0.5 µg/mL: MIC of antibiotic at fixed inhibitor concentration of 4 mg/L [1, 10] | MIC of antibiotic at fixed inhibitor concentration of 4 mg/L ([2]; with 501) | MIC of antibiotic at fixed inhibitor concentration of 4 mg/L ([2]; with BRL427158) | MIC of antibiotic at fixed inhibitor concentration of 4 mg/L ([9]; with BRL427158)
0.25 µg/mL: MIC of antibiotic at fixed inhibitor concentration of 4 mg/L ([1]; with 102 and clavulanate) | MIC of antibiotic at fixed inhibitor concentration of 4 mg/L ([1]; with 324 and clavulanate) | MIC of antibiotic at fixed inhibitor concentration of 4 mg/L ([7]; with 102 and clavulanate) | MIC of antibiotic at fixed inhibitor concentration of 4 mg/L ([7]; with 102 and sulbactam) | MIC of antibiotic at fixed inhibitor concentration of 4 mg/L ([7]; with 102 only) | MIC of antibiotic at fixed inhibitor concentration of 4 mg/L ([7]; with 324 and clavulanate) | MIC of antibiotic at fixed inhibitor concentration of 4 mg/L ([7]; with 324 and sulbactam) | MIC of antibiotic at fixed inhibitor concentration of 4 mg/L ([7]; with 324 only)
≦0.06 mg/L: MIC of antibiotic at fixed inhibitor concentration of 4 mg/L ([6]; with 102 and clavulanate) | MIC of antibiotic at fixed inhibitor concentration of 4 mg/L ([6]; with 102 only) | MIC of antibiotic at fixed inhibitor concentration of 4 mg/L ([6]; with 324 only) | MIC of antibiotic at fixed inhibitor concentration of 4 mg/L ([6]; with 501) | MIC of antibiotic at fixed inhibitor concentration of 4 mg/L ([6]; with BRL427158) | MIC of antibiotic at fixed inhibitor concentration of 4 mg/L [6, 10] | MIC of antibiotic at fixed inhibitor concentration of 4 mg/L ([6]; with sulbactam) | MIC of antibiotic at fixed inhibitor concentration of 4 mg/L ([6]; with tazobactam) | MIC of antibiotic at fixed inhibitor concentration of 4 mg/L [7, 10] | MIC of antibiotic at fixed inhibitor concentration of 4 mg/L ([7]; with sulbactam) | MIC of antibiotic at fixed inhibitor concentration of 4 mg/L ([7]; with tazobactam)
>32 µg/mL: MIC of antibiotic at fixed inhibitor concentration of 4 mg/L [2, 10]
4 µg/mL: MIC of antibiotic ([2]; antibiotic alone, no inhibitor) | MIC of antibiotic at fixed inhibitor concentration of 4 mg/L ([2]; with 102 and clavulanate) | MIC of antibiotic at fixed inhibitor concentration of 4 mg/L ([2]; with 102 only) | MIC of antibiotic at fixed inhibitor concentration of 4 mg/L ([2]; with 324 and clavulanate) | MIC of antibiotic at fixed inhibitor concentration of 4 mg/L ([2]; with 324 only) | MIC of antibiotic at fixed inhibitor concentration of 4 mg/L ([2]; with tazobactam) | MIC of antibiotic at fixed inhibitor concentration of 4 mg/L ([3]; with 324 only) | MIC of antibiotic at fixed inhibitor concentration of 4 mg/L [3, 10] | MIC of antibiotic at fixed inhibitor concentration of 4 mg/L ([3]; with sulbactam) | MIC of antibiotic at fixed inhibitor concentration of 4 mg/L ([3]; with tazobactam) | MIC of antibiotic ([4]; antibiotic alone, no inhibitor) | MIC of antibiotic at fixed inhibitor concentration of 4 mg/L ([4]; with 102 and clavulanate) | MIC of antibiotic at fixed inhibitor concentration of 4 mg/L ([4]; with tazobactam) | MIC of antibiotic at fixed inhibitor concentration of 4 mg/L ([5]; with 102 and sulbactam) | MIC of antibiotic at fixed inhibitor concentration of 4 mg/L ([5]; with 324 only) | MIC of antibiotic at fixed inhibitor concentration of 4 mg/L ([9]; with 102 and clavulanate) | MIC of antibiotic at fixed inhibitor concentration of 4 mg/L ([9]; with 324 and clavulanate) | MIC of antibiotic at fixed inhibitor concentration of 4 mg/L ([9]; with 324 only)
